Experimental data: patent EP0604800A1, “4- 4- 4-(carboxyalkyl)-phenyl amino carbonyl -phenyl -piperedines as aggregation inhibitors” (Dr. Karl Thomae GmbH, priority 1992, dated 1994)
Counter-ions that a name gives are not always drawn.

What was measured:
Thrombozytenaggregation = test: Collagen-induced platelet aggregation in platelet-rich plasma (Born and Cross); format: cell-based, Versuchspersonen; settings: 10 min preincubation at 37°C, half-maximal inhibition of change in optical density, read-out: Hemmung der Plättchenaggregation EC₅₀ (converted)
Source text: 2. Antithrombotische Wirkung Methodik Die Thrombozytenaggregation wird nach der Methode von Born und Cross (J. Physiol. 170, 397 (1964)) in plättchenreichem Plasma gesunder Versuchspersonen gemessen. Zur Gerinnungshemmung wird das Blut mit Natriumcitrat 3,14 % im Volumenverhältnis 1:10 versetzt. Collagen-induzierte Aggregation Der Verlauf der Abnahme der optischen Dichte der Plättchen-Suspension wird nach Zugabe der aggregationsauslösenden Substanz photometrisch gemessen und registriert. Aus dem Neigungswinkel der Dichtekurve wird auf die Aggregationsgeschwindigkeit geschlossen. Der Punkt der Kurve, bei dem die größte Lichtdurchlässigkeit vorliegt, dient zur Berechnung der "optical density". Die Collagen-Konzentration wird möglichst gering gewählt, aber doch so, daß sich eine irreversibel verlaufende Reaktionskurve ergibt. Verwendet wird das handelsübliche Collagen der Firma Hormonchemie, München. Vor der Collagen-Zugabe wird das Plasma jeweils 10 Minuten mit der Substanz bei 37°C inkubiert. Aus den Konzentrations-Wirkungskurven wird die EC₅₀ berechnet, die die Konzentration beschreibt, bei der die Änderung der "optical density" halbmaximal gehemmt ist.

Humanthrombozyten = test: Competitive binding of ³H-BIBU 52 / test substance to human platelets; settings: platelet suspension in plasma, ³H-BIBU 52 5 nM, 20 min at room temperature; read-out: Kompetitive Bindung ³H-BIBU 52/Textsubstanz an Humanthrombozyten IC₅₀ (converted)
Source text: 1. Kompetitive Bindung ³H-BIBU 52/Testsubstanz an Humanthrombozyten:
Eine Suspension von Humanthrombozyten in Plasma wird mit ³H-BIBU 52 [= (3S,5S)-5-[(4'-Amidino-4-biphenylyl)oxymethyl]-3-[(carboxyl)methyl]-2-pyrrolidinon[3-³H-4-biphenylyl]), das den literaturbekannten Liganden ¹²⁵ I-Fibrinogen ersetzt, (siehe deutsche Patentanmeldung P 42 14 245.8 der gleichen Anmelderin vom 30. 04. 1992, internes Zeichen: Case 5/1093-FL) und verschiedenen Konzentrationen der zu testenden Substanz inkubiert. Der freie und gebundene Ligand wird durch Zentrifugation getrennt und durch Szintillationszählung quantitativ bestimmt. Aus den Meßwerten wird die Hemmung der ³H-BIBU 52-Bindung durch die Testsubstanz bestimmt.
Hierzu wird aus einer Antikubitalvene Spenderblut entnommen und mit Trinatriumzitrat antikoaguliert (Endkonzentration 13 mM). Das Blut wird 10 Minuten bei 170 x g zentrifugiert und das überstehende plättchenreiche Plasma (PRP) abgenommen. Das Restblut wird zur Gewinnung von Plasma nocheinmal scharf abzentrifugiert. Das PRP wird mit autologem Plasma 1:10 verdünnt. 750 µl werden mit 50 µl physiologischer Kochsalzlösung, 100 µl Testsubstanzlösung, 50 µl ¹⁴C-Sucrose (3.700 Bq) und 50 µl ³H-BIBU 52 (Endkonzentration: 5 nM) bei Raumtemperatur 20 Minuten inkubiert. Zur Messung der unspezifischen Bindung wird anstelle der Testsubstanz 5 µl BIBU 52 (Endkonzentration: 30 µM) eingesetzt. Die Proben werden 20 Sekunden bei 10000 x g zentrifugiert und der Überstand abgezogen. 100 µl hiervon werden zur Bestimmung des freien Liganden gemessen. Das Pellet wird in 500 µl 0,2N NaOH gelöst, 450 µl werden mit 2 ml Szintillator und 25 µl 5N HCl versetzt und gemessen. Das im Pellet noch verbliebene Restplasma wird aus dem ¹⁴C-Gehalt bestimmt, der gebundene Ligand aus der ³H-Messung. Nach Abzug der unspezifischen Bindung wird die Pelletaktivität gegen die Konzentration der Testsubstanz aufgetragen und die Konzentration für eine 50%ige Hemmung der Bindung ermittelt.

[1] = Tolerability after intravenous administration to mice; format: in vivo, Mäusen; settings: 30 mg/kg, 3 mice each
[2] = tested on: Collagen-induzierte Thrombozytenaggregation; test: Ex vivo inhibition of collagen-induced platelet aggregation after oral administration; format: in vivo, Rhesusaffen; settings: 1 mg/kg, Rhesus monkeys, collagen 2 µg/ml
Source text: Die Hemmung der Thrombozytenaggregation nach oraler Gabe der Prüfsubstanz wird ex vivo an Rhesusaffen ermittelt.
Direkt vor der oralen Verabreichung der in Natrosol suspendierten Prüfsubstanz wird den Tieren eine Blutprobe aus der Kubitalvene als Referenzwert entnommen. Zu definierten Zeiten nach der Substanzgabe werden erneut Blutproben gewonnen und wie folgt untersucht.
Das mit 3,14% Natriumcitrat im Volumenverhältnis 1:10 versetzte Vollblut wird mit 200 g für 15 Minuten zentrifugiert. Der Überstand an plättchenreichem Plasma wird vorsichtig abgehoben. Aus dem erythrozytenreichen Sediment wird durch Zentrifugation mit 4000 g für 10 Minuten das plättchenarme Plasma als Überstand gewonnen.
Die mit Collagen (Hormonchemie, München; 2 µg/ml Endkonzentration im plättchenreichen Plasma) ausgelöste Thrombozytenaggregation in diesen ex vivo Proben wird nach der Methode von Born und Cross (J. Physiol. 170, 397 (1964)) photometrisch gemessen. Die nach Collagenstimulation gemessene größte Lichtdurchlässigkeit des plättchenreichen Plasmas wird mit dem Referenzwert verglichen, um die Hemmung der Aggregation zu den verschiedenen Zeitpunkten der Blutentnahme nach Substanzgabe relativ zum Referenzwert zu bestimmen.

Structure (SMILES)	EC50 (Thrombozytenaggregation)	IC50 (Humanthrombozyten)	gestorbene Tiere [1]	Dauer der Hemmung der Collagen-induzierten Thrombozytenaggregation ex vivo [2]
COC(=O)CC[C@H]1CC[C@H](NC(=O)c2cccc(C3CCNCC3)c2)CC1 [Beispiel 5, 4-[3-[[trans-4-[2-(Methoxycarbonyl)-ethyl]-cyclohexyl]-aminocarbonyl]-phenyl]-piperidin-hydrochlorid]	5.6 µM	2.9 µM	–	–
Cl.O=C(O)CC[C@H]1CC[C@H](NC(=O)c2ccc(C3CCNCC3)cc2)CC1 [Beispiel 3, 4-[4-[[trans-4-(2-Carboxy-ethyl)-cyclohexyl]-aminocarbonyl]-phenyl]-piperidin-hydrochlorid]	0.26 µM	0.19 µM	keine Tieren gestorben	–
CCCCS(=O)(=O)NC(Cc1ccc(NC(=O)c2cccc(C3CCNCC3)c2)cc1)C(=O)OC.Cl (stereo not shown) [5(2), 4-[3-[[4-[2-(n-Butansulfonylamino)-2-(methoxycarbonyl)-ethyl]-phenyl]-aminocarbonyl]-phenyl]-piperidin-hydrochlorid]	–	–	–	> 2 Stunden
COC(=O)CC[C@H]1CC[C@H](NC(=O)c2ccc(C3CCNCC3)cc2)CC1.Cl [Beispiel 2, 4-[4-[[trans-4-[2-(Methoxycarbonyl)-ethyl]-cyclohexyl]-aminocarbonyl]-phenyl]-piperidin-hydrochlorid]	0.84 µM	1.1 µM	keine Tieren gestorben	> 2 Stunden

Continued, in another order:

EC50 (Thrombozytenaggregation)	IC50 (Humanthrombozyten)	Structure (SMILES)	gestorbene Tiere [1]	Dauer der Hemmung der Collagen-induzierten Thrombozytenaggregation ex vivo [2]
5.8 µM	2 µM	O=C(O)CC[C@H]1CC[C@H](NC(=O)c2cccc(C3CCNCC3)c2)CC1 [Beispiel 3.4, 4-[3-[[trans-4-(2-Carboxy-ethyl)-cyclohexyl]-aminocarbonyl]-phenyl]-piperidin-hydrochlorid]	–	–
3.3 µM	> 100 µM	COC(=O)CCc1ccc(NC(=O)c2ccc(C3CCNCC3)cc2)cc1 [Beispiel 2.1, 4-[4-[[4-[2-(Methoxycarbonyl)-ethyl]-phenyl]-aminocarbonyl]-phenyl]-piperidin-hydrochlorid]	–	–
0.12 µM	0.014 µM	CCCCS(=O)(=O)NC(Cc1ccc(NC(=O)c2cccc(C3CCNCC3)c2)cc1)C(=O)O (stereo not shown) [Beispiel 3.6, 4-[3-[[4-[2-(n-Butansulfonylamino)-2-carboxy-ethyl]-phenyl]-aminocarbonyl]-phenyl]-piperidin-hydrochlorid]	–	–
3.3 µM	4.5 µM	CCCCS(=O)(=O)NC(Cc1ccc(NC(=O)c2ccc(C3CCNCC3)cc2)cc1)C(=O)OC (stereo not shown) [Beispiel 2.2, 4-[4-[[4-[2-(n-Butansulfonylamino)-2-(methoxycarbonyl)-ethyl]-phenyl]-aminocarbonyl]-phenyl]-piperidin-hydrochlorid]	–	–
0.26 µM	0.017 µM	CCCCS(=O)(=O)NC(Cc1ccc(NC(=O)c2ccc(C3CCNCC3)cc2)cc1)C(=O)O (stereo not shown) [Beispiel 3.3, 4-[4-[[4-[2-(n-Butansulfonyl-amino)-2-carboxy-ethyl]-phenyl]-aminocarbonyl]-phenyl]-piperidin-hydrochlorid]	–	–
2.4 µM	1.4 µM	O=C(O)CCc1ccc(NC(=O)c2ccc(C3CCNCC3)cc2)cc1 [Beispiel 3.1, 4-[4-[[4-(2-Carboxy-ethyl)-phenyl]-aminocarbonyl]-phenyl]-piperidin-hydrochlorid]	–	–
